Reference: ChEMBL document CHEMBL2417425, “Design and synthesis of positional isomers of 5 and 6-bromo-1-[(phenyl)sulfonyl]-2-[(4-nitrophenoxy)methyl]-1H-benzimidazoles as possible antimicrobial and antitubercular agents” (2013)
Converted amounts (≈) assume the structure as drawn.

Tests used:
Format in all cases: functional
[1] = test system: Mycobacterium tuberculosis; test: Antimycobacterial activity against Mycobacterium tuberculosis H37Rv assessed as growth inhibition at 0.3125 to 5 ug/mL by resazurin assay
[2] = test system: Mycolicibacterium fortuitum; test: Antimycobacterial activity against Mycobacterium fortuitum ATCC 19542 assessed as growth inhibition at 1 to 100 ug/mL by resazurin assay
[3] = test system: Mycolicibacterium smegmatis; test: Antimycobacterial activity against Mycobacterium smegmatis ATCC 19420 assessed as growth inhibition at 1 to 100 ug/mL by resazurin assay
[4] = test system: Mycobacterium tuberculosis; test: Antimycobacterial activity against Mycobacterium tuberculosis H37Rv assessed as growth inhibition at 1 to 100 ug/mL by resazurin assay; details: for MIC: Mycobacterium tuberculosis, H37Rv
[5] = test system: Rhizopus; test: Antifungal activity against Rhizopus sp. assessed as growth inhibition by serial dilution method
[6] = test system: Aspergillus flavus; test: Antifungal activity against Aspergillus flavus assessed as growth inhibition by serial dilution method
[7] = test system: Candida albicans; test: Antifungal activity against Candida albicans assessed as growth inhibition by serial dilution method
[8] = test system: Klebsiella pneumoniae; test: Antibacterial activity against Klebsiella pneumoniae assessed as growth inhibition by serial dilution method
[9] = test system: Escherichia coli; test: Antibacterial activity against Escherichia coli assessed as growth inhibition by serial dilution method
[10] = test system: Staphylococcus aureus; test: Antibacterial activity against Staphylococcus aureus assessed as growth inhibition by serial dilution method
[11] = test system: Mycolicibacterium fortuitum; test: Antimycobacterial activity against Mycobacterium fortuitum ATCC 19542 assessed as growth inhibition at 0.3125 to 5 ug/mL by resazurin assay
[12] = test system: Mycolicibacterium smegmatis; test: Antimycobacterial activity against Mycobacterium smegmatis ATCC 19420 assessed as growth inhibition at 0.3125 to 5 ug/mL by resazurin assay
[13] = test system: Klebsiella pneumoniae; test: Potency index, ratio of ciprofloxacin MIC to compound MIC for Klebsiella pneumoniae
[14] = test system: Staphylococcus aureus; test: Potency index, ratio of ciprofloxacin MIC to compound MIC for Staphylococcus aureus

Compound	MIC [1] [µg/mL]	MIC [2] [µg/mL]	MIC [3] [µg/mL]	growth inhibition (GI) [4] [%]	MIC [4] [µg/mL]	MIC [5] [µg/mL]	MIC [6] [µg/mL]	MIC [7] [µg/mL]	MIC [8] [µg/mL]	MIC [9] [µg/mL]	MIC [10] [µg/mL]	MIC [11] [µg/mL]	MIC [12] [µg/mL]	PI [13]	PI [14]
N#Cc1cccc(S(=O)(=O)n2c(COc3ccc([N+](=O)[O-])cc3)nc3cc(Br)ccc32)c1	5 (≈ 9.74 µM)	> 100	10 (≈ 19.5 µM)	<90	> 100	128 (≈ 249 µM)	128 (≈ 249 µM)	64 (≈ 125 µM)	128 (≈ 249 µM)	64 (≈ 125 µM)	128 (≈ 249 µM)	–	–	–	–
Cc1c(F)cccc1S(=O)(=O)n1c(COc2ccc([N+](=O)[O-])cc2)nc2cc(Br)ccc21	10 (≈ 19.2 µM)	10 (≈ 19.2 µM)	> 100	<90	> 100	256 (≈ 492 µM)	256 (≈ 492 µM)	128 (≈ 246 µM)	128 (≈ 246 µM)	> 256	64 (≈ 123 µM)	10 (≈ 19.2 µM)	10 (≈ 19.2 µM)	–	–
O=[N+]([O-])c1ccc(OCc2nc3cc(Br)ccc3n2S(=O)(=O)c2ccccc2Cl)cc1	0.625 (≈ 1.2 µM)	10 (≈ 19.1 µM)	1 (≈ 1.91 µM)	90	1 (≈ 1.91 µM)	16 (≈ 30.6 µM)	32 (≈ 61.2 µM)	8 (≈ 15.3 µM)	8 (≈ 15.3 µM)	4 (≈ 7.65 µM)	16 (≈ 30.6 µM)	10 (≈ 19.1 µM)	1.25 (≈ 2.39 µM)	1	–
COc1ccc(S(=O)(=O)n2c(COc3ccc([N+](=O)[O-])cc3)nc3cc(Br)ccc32)c(OC)c1	1.25 (≈ 2.28 µM)	10 (≈ 18.2 µM)	1 (≈ 1.82 µM)	90	1 (≈ 1.82 µM)	256 (≈ 467 µM)	128 (≈ 233 µM)	128 (≈ 233 µM)	128 (≈ 233 µM)	256 (≈ 467 µM)	64 (≈ 117 µM)	1.25 (≈ 2.28 µM)	1.25 (≈ 2.28 µM)	–	–
Cc1cccc(S(=O)(=O)n2c(COc3ccc([N+](=O)[O-])cc3)nc3cc(Br)ccc32)c1	1.25 (≈ 2.49 µM)	10 (≈ 19.9 µM)	10 (≈ 19.9 µM)	90	> 100	128 (≈ 255 µM)	> 256	64 (≈ 127 µM)	> 256	64 (≈ 127 µM)	128 (≈ 255 µM)	10 (≈ 19.9 µM)	–	–	–
COc1ccc(OC)c(S(=O)(=O)n2c(COc3ccc([N+](=O)[O-])cc3)nc3ccc(Br)cc32)c1	5 (≈ 9.12 µM)	> 100	10 (≈ 18.2 µM)	<90	10 (≈ 18.2 µM)	128 (≈ 233 µM)	256 (≈ 467 µM)	> 256	128 (≈ 233 µM)	> 256	256 (≈ 467 µM)	–	10 (≈ 18.2 µM)	–	–
O=[N+]([O-])c1ccc(OCc2nc3ccc(Br)cc3n2S(=O)(=O)c2cc(F)ccc2F)cc1	2.5 (≈ 4.77 µM)	10 (≈ 19.1 µM)	10 (≈ 19.1 µM)	<90	10 (≈ 19.1 µM)	256 (≈ 488 µM)	64 (≈ 122 µM)	128 (≈ 244 µM)	> 256	64 (≈ 122 µM)	128 (≈ 244 µM)	10 (≈ 19.1 µM)	10 (≈ 19.1 µM)	–	–
O=[N+]([O-])c1ccc(OCc2nc3ccc(Br)cc3n2S(=O)(=O)c2ccc(Cl)cc2Cl)cc1	–	> 100	> 100	0	> 100	> 256	128 (≈ 230 µM)	> 256	256 (≈ 459 µM)	> 256	64 (≈ 115 µM)	–	–	–	–
O=[N+]([O-])c1ccc(OCc2nc3ccc(Br)cc3n2S(=O)(=O)c2cc(Cl)ccc2Cl)cc1	10 (≈ 17.9 µM)	10 (≈ 17.9 µM)	> 100	90	10 (≈ 17.9 µM)	128 (≈ 230 µM)	256 (≈ 459 µM)	> 256	128 (≈ 230 µM)	128 (≈ 230 µM)	64 (≈ 115 µM)	10 (≈ 17.9 µM)	–	–	–
O=[N+]([O-])c1ccc(OCc2nc3ccc(Br)cc3n2S(=O)(=O)c2ccccc2[N+](=O)[O-])cc1	1.25 (≈ 2.34 µM)	10 (≈ 18.8 µM)	1 (≈ 1.88 µM)	90	1 (≈ 1.88 µM)	256 (≈ 480 µM)	> 256	> 256	256 (≈ 480 µM)	128 (≈ 240 µM)	> 256	1.25 (≈ 2.34 µM)	1.25 (≈ 2.34 µM)	–	–
N#Cc1cccc(S(=O)(=O)n2c(COc3ccc([N+](=O)[O-])cc3)nc3ccc(Br)cc32)c1	5 (≈ 9.74 µM)	> 100	10 (≈ 19.5 µM)	<90	> 100	128 (≈ 249 µM)	> 256	128 (≈ 249 µM)	256 (≈ 499 µM)	> 256	256 (≈ 499 µM)	–	–	–	–
Cc1c(F)cccc1S(=O)(=O)n1c(COc2ccc([N+](=O)[O-])cc2)nc2ccc(Br)cc21	1.25 (≈ 2.4 µM)	> 100	> 100	<90	10 (≈ 19.2 µM)	256 (≈ 492 µM)	> 256	256 (≈ 492 µM)	> 256	256 (≈ 492 µM)	> 256	–	–	–	–
O=[N+]([O-])c1ccc(OCc2nc3ccc(Br)cc3n2S(=O)(=O)c2ccccc2Cl)cc1	–	> 100	> 100	0	> 100	> 256	> 256	128 (≈ 245 µM)	256 (≈ 490 µM)	> 256	128 (≈ 245 µM)	–	–	–	–
COc1ccc(S(=O)(=O)n2c(COc3ccc([N+](=O)[O-])cc3)nc3ccc(Br)cc32)c(OC)c1	2.5 (≈ 4.56 µM)	> 100	10 (≈ 18.2 µM)	<90	10 (≈ 18.2 µM)	128 (≈ 233 µM)	256 (≈ 467 µM)	> 256	128 (≈ 233 µM)	256 (≈ 467 µM)	> 256	–	2.5 (≈ 4.56 µM)	–	–
Cc1cccc(S(=O)(=O)n2c(COc3ccc([N+](=O)[O-])cc3)nc3ccc(Br)cc32)c1	5 (≈ 9.95 µM)	> 100	10 (≈ 19.9 µM)	<90	> 100	> 256	> 256	256 (≈ 510 µM)	> 256	128 (≈ 255 µM)	> 256	–	–	–	–
Nc1ccc(OCc2nc3cc(Br)ccc3[nH]2)cc1	5 (≈ 15.7 µM)	> 100	10 (≈ 31.4 µM)	<90	10 (≈ 31.4 µM)	256 (≈ 805 µM)	128 (≈ 402 µM)	64 (≈ 201 µM)	128 (≈ 402 µM)	128 (≈ 402 µM)	64 (≈ 201 µM)	–	10 (≈ 31.4 µM)	–	–
COc1ccc(OC)c(S(=O)(=O)n2c(COc3ccc([N+](=O)[O-])cc3)nc3cc(Br)ccc32)c1	1.25 (≈ 2.28 µM)	10 (≈ 18.2 µM)	1 (≈ 1.82 µM)	90	1 (≈ 1.82 µM)	256 (≈ 467 µM)	64 (≈ 117 µM)	128 (≈ 233 µM)	256 (≈ 467 µM)	128 (≈ 233 µM)	128 (≈ 233 µM)	1.25 (≈ 2.28 µM)	1.25 (≈ 2.28 µM)	–	–
O=[N+]([O-])c1ccc(OCc2nc3cc(Br)ccc3n2S(=O)(=O)c2ccc(Cl)cc2Cl)cc1	5 (≈ 8.97 µM)	> 100	10 (≈ 17.9 µM)	<90	> 100	128 (≈ 230 µM)	64 (≈ 115 µM)	128 (≈ 230 µM)	64 (≈ 115 µM)	4 (≈ 7.18 µM)	8 (≈ 14.4 µM)	–	–	–	–
O=[N+]([O-])c1ccc(OCc2nc3cc(Br)ccc3n2S(=O)(=O)c2cc(Cl)ccc2Cl)cc1	1.25 (≈ 2.24 µM)	10 (≈ 17.9 µM)	10 (≈ 17.9 µM)	90	> 100	16 (≈ 28.7 µM)	32 (≈ 57.4 µM)	64 (≈ 115 µM)	8 (≈ 14.4 µM)	4 (≈ 7.18 µM)	8 (≈ 14.4 µM)	10 (≈ 17.9 µM)	–	1	–
O=[N+]([O-])c1ccc(OCc2nc3cc(Br)ccc3n2S(=O)(=O)c2ccccc2[N+](=O)[O-])cc1	0.625 (≈ 1.17 µM)	10 (≈ 18.8 µM)	1 (≈ 1.88 µM)	95	1 (≈ 1.88 µM)	16 (≈ 30 µM)	8 (≈ 15 µM)	16 (≈ 30 µM)	4 (≈ 7.5 µM)	32 (≈ 60 µM)	4 (≈ 7.5 µM)	10 (≈ 18.8 µM)	1.25 (≈ 2.34 µM)	2	1
C[C@@H]1[C@H](O)[C@@H](C)/C=C/C=C/C=C/C=C/C=C/C=C/C=C/[C@H](O[C@@H]2O[C@H](C)[C@@H](O)[C@H](N)[C@@H]2O)C[C@@H]2O[C@](O)(C[C@@H](O)C[C@@H](O)[C@H](O)CC[C@@H](O)C[C@@H](O)CC(=O)O[C@H]1C)C[C@H](O)[C@H]2C(=O)O [AMPHOTERICIN B]	–	–	–	–	–	16 (≈ 17.3 µM)	8 (≈ 8.66 µM)	8 (≈ 8.66 µM)	–	–	–	–	–	–	–
O=C(O)c1cn(C2CC2)c2cc(N3CCNCC3)c(F)cc2c1=O [CIPROFLOXACIN]	–	–	–	–	–	–	–	–	16 (≈ 48.3 µM)	–	8 (≈ 24.1 µM)	–	–	–	–
NNC(=O)c1ccncc1 [ISONIAZID]	0.7 (≈ 5.1 µM)	12.5 (≈ 91.1 µM)	50 (≈ 365 µM)	95	0.7 (≈ 5.1 µM)	–	–	–	–	–	–	12.5 (≈ 91.1 µM)	50 (≈ 365 µM)	–	–
CO[C@H]1/C=C/O[C@@]2(C)Oc3c(C)c(O)c4c(O)c(c(/C=N/N5CCN(C)CC5)c(O)c4c3C2=O)NC(=O)/C(C)=C\C=C\[C@H](C)[C@H](O)[C@@H](C)[C@@H](O)[C@@H](C)[C@H](OC(C)=O)[C@@H]1C [RIFAMPIN]	0.5 (≈ 0.608 µM)	1.5 (≈ 1.82 µM)	1.5 (≈ 1.82 µM)	95	0.5 (≈ 0.608 µM)	–	–	–	–	–	–	1.5 (≈ 1.82 µM)	1.5 (≈ 1.82 µM)	–	–
